9 compounds from ChEMBL document CHEMBL5113478, “7-Azaindole, 2,7-diazaindole, and 1H-pyrazole as core structures for novel anticancer agents with potential chemosensitizing properties” (Eur J Med Chem, 2022) can be followed below.

The structures appear in SMILES notation.

Common to all, as to assay type: functional
Assay [1] relates to PANC-1. Briefly: Antiproliferative activity against human PANC-1 cells assessed as […] cell proliferation at 10 uM incubated for 48 hrs by WST-1 assay relative to control.
Assay [2] has as its system A2780. Briefly: Antiproliferative activity against human A2780 cells assessed as […] cell proliferation at 10 uM incubated for 48 hrs by WST-1 assay relative to control. In general terms: Formazan colour is commonly taken as a measure of viable cells.
The test system of assay [3] is HT-29. Briefly: Antiproliferative activity against human HT-29 cells assessed as […] cell proliferation at 10 uM incubated for 48 hrs by WST-1 assay relative to control.
Assay [4] has as its system A549. The experiment in a line: Antiproliferative activity against human A549 cells assessed as […] cell proliferation at 10 uM incubated for 48 hrs in presence of 15 uM of CDDP by WST-1 assay relative to control.
In assay [5] the test system is HT-29. The experiment in a line: Antiproliferative activity against human HT-29 cells assessed as […] cell proliferation at 10 uM incubated for 48 hrs in presence of 15 uM of CDDP by WST-1 assay relative to control.
Assay [6] relates to HeLa. The experiment in a line: Antiproliferative activity against human HeLa cells assessed as […] cell proliferation at 10 uM incubated for 48 hrs by WST-1 assay relative to control.
The subject of assay [7] is HeLa. The experiment in a line: Antiproliferative activity against human HeLa cells assessed as […] cell proliferation at 10 uM incubated for 48 hrs in presence of 15 uM of CDDP by WST-1 assay relative to control.
Assay [8] deals with MCF7. Briefly: Antiproliferative activity against human MCF7 cells assessed as […] cell proliferation at 10 uM incubated for 48 hrs by WST-1 assay relative to control.
In assay [9] the test system is MOLT-4. The experiment in a line: Antiproliferative activity against human MOLT-4 cells assessed as […] cell proliferation at 10 uM incubated for 48 hrs in presence of 2 uM of CDDP by WST-1 assay relative to control.
Assay [10] relates to SAOS-2. The experiment in a line: Antiproliferative activity against human SAOS-2 cells assessed as […] cell proliferation at 10 uM incubated for 48 hrs by WST-1 assay relative to control.
Assay [11] deals with A549. Briefly: Antiproliferative activity against human A549 cells assessed as […] cell proliferation at 10 uM incubated for 48 hrs by WST-1 assay relative to control.
For assay [12], the system named is MOLT-4. The experiment in a line: Antiproliferative activity against human MOLT-4 cells assessed as […] cell proliferation at 10 uM incubated for 48 hrs by WST-1 assay relative to control.
The test system of assay [13] is Jurkat. Briefly: Antiproliferative activity against human Jurkat cells assessed as […] cell proliferation at 10 uM incubated for 48 hrs in presence of 2 uM of CDDP by WST-1 assay relative to control.
In assay [14] the test system is Jurkat. The experiment in a line: Antiproliferative activity against human Jurkat cells assessed as […] cell proliferation at 10 uM incubated for 48 hrs by WST-1 assay relative to control.
In assay [15] the test system is SAOS-2. Briefly: Antiproliferative activity against human SAOS-2 cells assessed as […] cell proliferation at 10 uM incubated for 48 hrs in presence of 15 uM of CDDP by WST-1 assay relative to control.
The subject of assay [16] is PANC-1. Briefly: Antiproliferative activity against human PANC-1 cells assessed as […] cell proliferation at 10 uM incubated for 48 hrs in presence of 15 uM of CDDP by WST-1 assay relative to control.
For assay [17], the system named is MCF7. Briefly: Antiproliferative activity against human MCF7 cells assessed as […] cell proliferation at 10 uM incubated for 48 hrs in presence of 10 uM of CDDP by WST-1 assay relative to control.
The subject of assay [18] is A2780. The experiment in a line: Antiproliferative activity against human A2780 cells assessed as […] cell proliferation at 10 uM incubated for 48 hrs in presence of 2 uM of CDDP by WST-1 assay relative to control.

On to `CCN(CC)c1ccc(CNC(=O)c2c[nH]c3ncc(-c4ccc(S(C)(=O)=O)cc4)cc23)cc1`, for which the Activity was determined as 76% with PANC-1 [1]; 76% in the assay with A2780 [2]; 59% in the assay on A549 [4]; 59% in the assay with HT-29 [5]; 76% with HeLa [6]; 59% in the assay with HeLa [7]. In addition, the Activity in the assay on MCF7 [8] was 76%; in the assay on MOLT-4 [9], 59%; in the assay with SAOS-2 [10], 76%; with A549 [11], 76%; in the assay with MOLT-4 [12] it was 76%; with Jurkat [13] it was 59%. Also, the Activity was 76% in the assay with Jurkat [14]; 59% with SAOS-2 [15]; 59% with PANC-1 [16]; 59% with MCF7 [17]; 59% in the assay on A2780 [18]. Further, the “Cell viability relative to control” value in the assay on HT-29 [3] is on record as 76%.

Regarding `CS(=O)(=O)c1ccc(-c2cnc3[nH]c(C(=O)NCc4ccccc4)cc3c2)cc1`, the Activity is on record as 100% in the assay with PANC-1 [1]; 100% with A2780 [2]; 72% in the assay on A549 [4]; 72% with HT-29 [5]; 100% with HeLa [6]; 72% in the assay with HeLa [7]. The Activity with MCF7 [8] amounted to 100%; in the assay with MOLT-4 [9], 72%; with SAOS-2 [10], 100%; in the assay on A549 [11] it was 100%; in the assay on MOLT-4 [12], 100%; with Jurkat [13], 72%. Also, the Activity in the assay with Jurkat [14] is 100%; in the assay with SAOS-2 [15], 72%; with PANC-1 [16] it was 72%; in the assay on MCF7 [17], 72%; with A2780 [18] it was 72%. Besides, the “Cell viability relative to control” value with HT-29 [3] worked out at 100%.

On to `CS(=O)(=O)c1ccc(-c2cnc3[nH]cc(C(=O)NCc4ccccc4)c3c2)cc1`, for which the Activity is given as 89% with PANC-1 [1]; 89% with A2780 [2]; 64% in the assay with A549 [4]; 64% in the assay with HT-29 [5]; 89% in the assay on HeLa [6]; 64% in the assay on HeLa [7]. In addition, the Activity stood at 89% in the assay on MCF7 [8]; 64% with MOLT-4 [9]; 89% in the assay on SAOS-2 [10]; 89% with A549 [11]; 89% in the assay on MOLT-4 [12]; 64% with Jurkat [13]. For the same compound, the Activity stood at 89% in the assay on Jurkat [14]; 64% with SAOS-2 [15]; 64% with PANC-1 [16]; 64% in the assay with MCF7 [17]; 64% in the assay on A2780 [18]. In the assay with HT-29 [3], the “Cell viability relative to control” value is listed as 89%.

For the compound `CC(C)S(=O)(=O)c1ccc(-c2cnc3[nH]cc(CN4CCc5ccccc5C4)c3c2)cc1`, the Activity in the assay on PANC-1 [1] was 101%; in the assay on A2780 [2] it was 101%; with A549 [4], 62%; in the assay with HT-29 [5], 62%; with HeLa [6] it was 101%; in the assay on HeLa [7], 62%. For the same compound, the Activity in the assay on MCF7 [8] is listed as 101%; with MOLT-4 [9], 62%; with SAOS-2 [10], 101%; in the assay on A549 [11] it was 101%; with MOLT-4 [12] it was 101%; in the assay with Jurkat [13], 62%. The Activity in the assay with Jurkat [14] is 101%; in the assay on SAOS-2 [15] it was 62%; in the assay with PANC-1 [16] it was 62%; with MCF7 [17] it was 62%; with A2780 [18], 62%. Also, in the assay with HT-29 [3], the “Cell viability relative to control” value was 101%.

With `CC(C)S(=O)(=O)c1ccc(-c2cc(C(=O)Nc3ccc(N(C)C)cc3)n[nH]2)cc1`, the Activity with PANC-1 [1] is given as 93%; in the assay on A2780 [2], 93%; in the assay on A549 [4], 65%; in the assay on HT-29 [5] it was 65%; in the assay with HeLa [6], 93%; with HeLa [7] it was 65%. Further, the Activity stood at 93% in the assay with MCF7 [8]; 65% in the assay with MOLT-4 [9]; 93% with SAOS-2 [10]; 93% in the assay on A549 [11]; 93% in the assay on MOLT-4 [12]; 65% with Jurkat [13]. Besides, the Activity stood at 93% in the assay with Jurkat [14]; 65% with SAOS-2 [15]; 65% in the assay on PANC-1 [16]; 65% in the assay on MCF7 [17]; 65% with A2780 [18]. Besides, the “Cell viability relative to control” value with HT-29 [3] is recorded as 93%.

For the compound `CCN1CCN(C(=O)c2c[nH]c3ncc(-c4ccc(S(C)(=O)=O)cc4)cc23)CC1`, the Activity with PANC-1 [1] was 95%; in the assay with A2780 [2], 95%; in the assay on A549 [4], 70%; with HT-29 [5] it was 70%; in the assay with HeLa [6], 95%; in the assay on HeLa [7], 70%. The Activity in the assay on MCF7 [8] came out at 95%; in the assay on MOLT-4 [9] it was 70%; in the assay with SAOS-2 [10], 95%; in the assay with A549 [11], 95%; in the assay with MOLT-4 [12] it was 95%; in the assay on Jurkat [13] it was 70%. In addition, the Activity is 95% with Jurkat [14]; 70% in the assay on SAOS-2 [15]; 70% in the assay with PANC-1 [16]; 70% with MCF7 [17]; 70% in the assay with A2780 [18]. Also, in the assay on HT-29 [3], the “Cell viability relative to control” value stood at 95%.

Turning to `CC(C)S(=O)(=O)c1ccc(-c2cc(C(=O)NCc3ccccc3)n[nH]2)cc1`, the Activity with PANC-1 [1] worked out at 98%; in the assay with A2780 [2], 98%; in the assay with A549 [4], 68%; in the assay on HT-29 [5], 68%; with HeLa [6], 98%; with HeLa [7], 68%. Further, the Activity in the assay with MCF7 [8] stood at 98%; in the assay with MOLT-4 [9] it was 68%; in the assay on SAOS-2 [10] it was 98%; with A549 [11], 98%; in the assay on MOLT-4 [12], 98%; with Jurkat [13], 68%. Moreover, the Activity was found to be 98% in the assay on Jurkat [14]; 68% with SAOS-2 [15]; 68% in the assay on PANC-1 [16]; 68% with MCF7 [17]; 68% in the assay with A2780 [18]. Also, in the assay on HT-29 [3], the “Cell viability relative to control” value came to 98%.

In the case of `CC(C)S(=O)(=O)c1ccc(-c2cnc3[nH]cc(C(=O)Nc4ccc(N(C)C)cc4)c3c2)cc1`, the Activity is reported as 96% in the assay on PANC-1 [1]; 96% in the assay with A2780 [2]; 59% in the assay with A549 [4]; 59% in the assay on HT-29 [5]; 96% in the assay on HeLa [6]; 59% in the assay with HeLa [7]. In addition, the Activity in the assay on MCF7 [8] is reported as 96%; in the assay on MOLT-4 [9] it was 59%; in the assay on SAOS-2 [10], 96%; with A549 [11] it was 96%; in the assay on MOLT-4 [12], 96%; in the assay on Jurkat [13], 59%. The Activity in the assay with Jurkat [14] was 96%; in the assay with SAOS-2 [15], 59%; in the assay on PANC-1 [16], 59%; in the assay on MCF7 [17], 59%; in the assay with A2780 [18], 59%. In the assay with HT-29 [3], the “Cell viability relative to control” value is given as 96%.

Regarding `CC(C)S(=O)(=O)c1ccc(-c2cc(C(=O)N3CCC(c4ccccc4)CC3)n[nH]2)cc1`, the Activity came out at 84% with PANC-1 [1]; 84% in the assay on A2780 [2]; 62% in the assay on A549 [4]; 62% in the assay on HT-29 [5]; 84% with HeLa [6]; 62% with HeLa [7]. The Activity with MCF7 [8] turned out to be 84%; in the assay on MOLT-4 [9], 62%; in the assay with SAOS-2 [10], 84%; in the assay on A549 [11], 84%; with MOLT-4 [12] it was 84%; in the assay with Jurkat [13], 62%. For the same compound, the Activity in the assay on Jurkat [14] stood at 84%; with SAOS-2 [15], 62%; in the assay on PANC-1 [16], 62%; with MCF7 [17], 62%; in the assay with A2780 [18] it was 62%. In addition, the “Cell viability relative to control” value with HT-29 [3] stood at 84%.
